Results published in US20160178584A1, “METHODS FOR DIAGNOSING AND ASSESSING KIDNEY DISEASE” (THE REGENTS OF THE UNIVERSITY OF CALIFORNIA, priority 2010, published 2016).

Columns and labels:
[1] = test system: subjects with diabetic nephropathy; experiment: Randomized double-blind, placebo-controlled exploratory trial of pirfenidone: eGFR change (primary endpoint); type: in vivo, human; details: for eGFR Change, with imputation: 54 weeks, completers plus subjects who began dialysis, end-of-study eGFR imputed as 10 ml/min per 1.73 m2; for eGFR Change: over 54 weeks, 52 study completers, mean ± SD
Method: Pirfenidone is an orally-available anti-fibrotic agent that has shown efficacy in animal models of diabetic nephropathy and human focal segmental glomerulosclerosis. A randomized double-blind, placebo-controlled exploratory trial of pirfenidone was performed in subjects with diabetic nephropathy with elevated albuminura and reduced glomerular filtration rate (eGFR) (20-75 ml/min per 1.73 m^2). The pre-specified primary outcome was eGFR change after one year of therapy. 78 subjects were randomly allocated to placebo (n=27), pirfenidone 1200 mg/d (n=26), or pirfenidone 2400 mg/d (n=25). 52 subjects completed the study. During the course of the study, eGFR increased with pirfenidone 1200 mg/d [+3.3±8.5 ml/min per 1.73 m^2 (mean±SD)], whereas eGFR fell with placebo (−2.2±4.8 ml/min per 1.73 m^2, p<0.03 versus pirfenidone 1200 mg/d) and with pirfenidone 2400 mg/d (−1.9±6.7 ml/min per 1.73 m^2, P=0.25 versus placebo). Of the initial 77 subjects, 5 initiated hemodialysis during the study: 4 in the placebo group, 0 in the pirfenidone 1200 mg group and 1 in the pirfenidone 2400 mg group (P=0.25). Baseline serum albumin levels were statistically associated with eGFR improvement in the entire cohort (p=0.001) and in the pirfenidone 2400 group (+0.9 [95% CI 0.7 to 1.1], p=0.03).
The study protocol was approved by the institutional review boards of the participating centers and all patients provided written consent. Trial sites were Thomas Jefferson University, Philadelphia, Pa.; the Mayo Clinic, Rochester, Minn.; and the NIH Clinical Center, Bethesda, Md. At the pre-study evaluation, the potential study candidates provided a medical history and underwent a complete physical examination, including clinical laboratory determinations and the measurement of vital signs. Entry criteria included a history of type 1 or type 2 diabetes, eGFR 20-75 ml/min/1.73 m2, microalbuminuria or overt proteinuria, blood pressure <140/90 mm Hg on an a ACEi, ARB or the combination, if tolerated. Exclusion criteria included other causes of kidney disease, history of photosensitivity rash, and liver disease. A stratified block randomization scheme was used to maximize the balance of patients with type 1 and type 2 diabetes assigned to each treatment group, using randomization blocks of size 4.
(§1) Eligible subjects were randomly assigned to receive pirfenidone 1200 mg daily, pirfenidone 2400 mg daily, or placebo for 54 weeks. Subjects received two 400 mg capsules of pirfenidone three times, one capsule of pirfenidone and one capsule of placebo three times daily), or two capsules of placebo three times daily. […] If symptoms persisted, the dose was kept at the lowest tolerable dose (but not less than 50% of original dose) if the subject desired to continue in the protocol.
(§2) The primary endpoint was eGFR change from baseline to end of study. Baseline eGFR was determined from two serum creatinine measurements within 3 weeks prior to starting study drug. End of study eGFR was determined from two serum creatinine measurements at week 52 and week 54, prior to stopping study medication. Serum creatinine was measured by the Jaffe method separately at each clinic site laboratory. eGFR was determined by the 4-variable Modification of Diet in Renal Disease Study equation 37. Secondary endpoints included the change in urine ACR and the change in urine TGF-[…]/urine creatinine.
The pre-specified primary endpoint analysis was the eGFR change, compared between each pirfenidone treatment group with placebo group using the Student t-test. […]

[2] = test system: patients with advanced and treatment-refractory focal segmental sclerosis; details: cited from earlier work
[3] = test system: subjects with diabetic nephropathy; experiment: Pirfenidone trial: adverse events and study non-completion; type: in vivo, human; details: for non-completion: Aortic dilation / non-completion: Cancer / non-completion: Dialysis / non-completion: Fatigue / non-completion: Gastrointestinal symptoms / non-completion: Heart failure / non-completion: Rash / non-completion: Urinary tract infection: number of subjects (%)
Method: as §1
An analysis based on logistic regression models was conducted to determine whether this violates the assumption of missing completely at random (MCAR) 40. This included using baseline characteristics to predict dropout and using eGFR values at a particular visit to predict dropout at the next visit. The latter part of the logistic regression was fitted using generalized estimating equations (GEE) 41. All data analyses were conducted using R and STATA version 11.0 (College Station, Tex.)

[4] = test system: subjects with diabetic nephropathy; experiment: Urine metabolomics in subjects treated with pirfenidone; type: in vivo, human; details: second cohort of patients enrolled in a separate trial
Source text: Twenty-four hour urine was collected from both control and D-CKD subjects. A composite quantitative urine organic acid estimation was done using the Agilent 5973 […] and Mass spectrometry. Seventy-six different organic acids were looked at per sample and the results were standardized per mmol of creatinine.
Based on this study, the basis for why pirfenidone benefited some patients and not others was unclear. Despite available clinical data and protein biomarker studies there was little understanding on how to dose and prescribe this drug in a future study. Urine metabolomics was performed in subjects enrolled in this study at baseline and at 6 months after enrollment. A panel of metabolites based on a specific ratio added predictive value to the outcome on the drug. […] Similar approaches can be employed with other clinical trials to identify which patients will respond to drug, which patients will not, and identify potential new mechanisms. Additionally, metabolite profiles could predict adverse events in patients that are ongoing or will develop in the future.

db/db mice = details: cited from earlier work
[5] = test system: subjects with diabetic nephropathy; experiment: Pirfenidone trial: changes in plasma biomarkers of inflammation and fibrosis; type: in vivo, human; details: for Change in IFN gamma / Change in Plasma TGF Beta / Change in TNF α / Change in YKL40 / Change in BNP / Change in FGF23 / Change in IL1 / Change in S TNF R1: over 52 weeks; for Change in IFN gamma / Change in Plasma TGF Beta / Change in TNF α / Change in YKL40: mean ± SD; for Change in BNP / Change in FGF23 / Change in IL1 / Change in S TNF R1: median and IQR
Method: (§3) Biomarkers were analyzed in plasma and urine from samples collected at both baseline visits and both end-of-study visits, with the two results averaged. Plasma biomarkers were measured by MesoScale Discovery (MSD) platform at the UCSD Clinical Translational Research Institute (CTRI) facility. The MSD platform uses electrochemiluminescence tags on specific antibodies that emit light when electrochemically stimulated. The specific blood biomarkers measured were interferon-y (IFNy), interleukin 1 (IL-1), tumor necrosis factor (TNF), soluble TNF receptor 1 (S TNF R1), YKL40 (also called chitinase like protein or human cartilage glycoprotein-39), brain natriuretic peptide (BNP), and TGF-beta1. Fibroblast growth factor 23 (FGF23) was measured by a C-terminal ELISA assay (Immutopics, San Clemente, Calif.). Urine biomarkers included urine TGF-beta1 (measured by Quantikine, R&D Biosystems, as previously described 29). Urine albumin was measured by nephelometry and urine creatinine was measured by the Jaffe method.
In exploratory analysis, linear regression was performed to evaluate associations between baseline eGFR as the dependent variable and each biomarker at baseline as the independent variable. Skewed variables were natural log transformed, and each biomarker was evaluated as “per SD greater” to facilitate comparisons of strengths of association. Biomarker change scores were calculated as (end-of-study value—baseline level). Analysis of variance (ANOVA) was used to determine if the change in biomarker levels differed by randomized treatment assignment. It was also whether baseline biomarker levels were associated with eGFR change using multivariable linear regression. These models were adjusted for the other biomarkers and for clinical factors that are well established markers of progressive diabetic nephropathy, including age, sex, race, SBP, DBP, baseline ACR, and baseline eGFR.

[6] = test system: subjects with diabetic nephropathy; experiment: Pirfenidone trial, secondary outcomes: urine albumin/creatinine ratio and urine TGF-beta; type: in vivo, human
Method: as §2, §3
The pre-specified primary endpoint analysis was the eGFR change, compared between each pirfenidone treatment group with placebo group using the Student t-test. Secondary endpoints (ACR change and urine TGF-beta1 change[…]s were similarly evaluated. When one of the two visits was missing, a single observation was used. Due to missing data the assumption that the data points arose from an identical distribution (equal variance) was put in question. Therefore, in addition to the two-sample t-tests, we also performed permutation tests with 10,000 permutations of the treatment assignments, as well as an analysis of covariance (ANCOVA) 38 with iterated re-weighted least-squares (IWLS) 39 as confirmatory analyses. Data are presented as mean±SD for normally distributed variables, and medians and interquartile ranges for skewed variables.

SMILES: Cc1ccc(=O)n(-c2ccccc2)c1 [pirfenidone]
- eGFR Change, with imputation ([1]; 1200 mg): 3.3 ± 8.5 ml/min/1.73 m^2
- eGFR Change ([1]; 1200 mg): 3.3 ± 8.5 ml/min/1.73 m^2
- eGFR Change, with imputation ([1]; 2400 mg): −2.1 ± 6.4 ml/min/1.73 m^2
- eGFR Change ([1]; 2400 mg): −1.9 ± 6.7 ml/min/1.73 m^2
- subjects who initiated hemodialysis during the study ([1]; pirfenidone 1200 mg group): 0
- mean inter-group difference in eGFR change versus placebo ([1]; pirfenidone 1200 mg, baseline to end-of-study): +5.5 ml/min per 1.73 m^2
- difference in eGFR change versus placebo, baseline to month 6 ([1]; pirfenidone 1200 mg, post-hoc two sample t-test): 5.3 ml/min/1.73 m^2
- eGFR change during the course of the study ([1]; pirfenidone 2400 mg/d, one year (54 weeks), mean±SD): −1.9±6.7 ml/min per 1.73 m^2
- mean difference in eGFR change versus placebo ([1]; pirfenidone 2400 mg, baseline to end-of-study): 0.3 ml/min per 1.73 m^2
- share of subjects who tolerated the dose ([2]; 2400 mg/d, FSGS open label study): ⅔
- reduction in the rate of estimated glomerular filtration rate (eGFR) decline ([2]; compared to the rate of decline before pirfenidone): 25%
- non-completion: Aortic dilation ([3]; 1200 mg (n = 26)): 1 (4%)
- non-completion: Cancer ([3]; 1200 mg (n = 26)): 0 (0%)
- non-completion: Dialysis ([3]; 1200 mg (n = 26)): 0 (0%)
- non-completion: Fatigue ([3]; 1200 mg (n = 26)): 0 (0%)
- non-completion: Gastrointestinal symptoms ([3]; 1200 mg (n = 26)): 3 (13%)
- non-completion: Heart failure ([3]; 1200 mg (n = 26)): 1 (4%)
- non-completion: Rash ([3]; 1200 mg (n = 26)): 1 (4%)
- non-completion: Urinary tract infection ([3]; 1200 mg (n = 26)): 0 (0%)
- non-completion: Aortic dilation ([3]; 2400 mg (n = 25)): 0 (0%)
- non-completion: Cancer ([3]; 2400 mg (n = 25)): One subject
- non-completion: Dialysis ([3]; 2400 mg (n = 25)): 1 (4%)
- non-completion: Fatigue ([3]; 2400 mg (n = 25)): 3 (12%)
- non-completion: Gastrointestinal symptoms ([3]; 2400 mg (n = 25)): 6 (25%)
- non-completion: Heart failure ([3]; 2400 mg (n = 25)): 0 (0%)
- non-completion: Rash ([3]; 2400 mg (n = 25)): 1 (4%)
- non-completion: Urinary tract infection ([3]; 2400 mg (n = 25)): 1 (4%)
- non-completion: Cancer ([3]; 2400 mg (n = 25), listed as Prifenidone): 1 (4%)
- incidence of gastrointestinal side effects and fatigue ([3]; pirfenidone groups compared to placebo): appeared to be dose related
- Non-Completers, n (%) ([3]; randomized to 1200): 9 (35%)
- Non-Completers, n (%) ([3]; randomized to 2400): 11 (44%)
- urine citrate with interventional treatment [4]: showed an increase
- albuminuria (db/db mice; diabetic db/db mouse): without lowering albuminuria
- glomerulosclerosis (db/db mice; oral, after the onset of established diabetic kidney disease): effective in reducing glomerulosclerosis
- Change in IFN gamma ([5]; 1200, n = 14): 0.1 ± 1.9 pg/mL
- Change in Plasma TGF Beta ([5]; 1200, n = 14): -2 ± 26 pg/mL
- Change in TNF α ([5]; 1200, n = 14): -0.8 ± 2.2 pg/mL
- Change in YKL40 ([5]; 1200, n = 14): 6 ± 62 ng/mL
- Change in BNP ([5]; 1200, n = 14): −22 (−114, 24) pg/ml
- Change in FGF23 ([5]; 1200, n = 14): −3 (−23, 33) RU/ml
- Change in IL1 ([5]; 1200, n = 14): 0.0 (−0.3, 0.4) pg/ml
- Change in S TNF R1 ([5]; 1200, n = 14): −140 (−497, 148) pg/ml
- Change in IFN gamma ([5]; 2400, n = 14): 0.2 ± 2.5 pg/mL
- Change in Plasma TGF Beta ([5]; 2400, n = 14): 7 ± 17 pg/mL
- Change in TNF α ([5]; 2400, n = 14): -0.7 ± 2.1 pg/mL
- Change in YKL40 ([5]; 2400, n = 14): 30 ± 43 ng/mL
- Change in BNP ([5]; 2400, n = 14): 45 (−67, 312) pg/ml
- Change in FGF23 ([5]; 2400, n = 14): 13 (−6, 63) RU/ml
- Change in IL1 ([5]; 2400, n = 14): 0.0 (−0.2, 0.2) pg/ml
- Change in S TNF R1 ([5]; 2400, n = 14): 197 (−113, 420) pg/ml
- change of inflammatory plasma biomarkers with treatment ([5]; in vivo): none changed significantly
- change in urine albumin/creatinine ratio (ACR) from baseline to end of study ([6]; among study groups): no significant differences
- albuminuria with treatment ([6]; in vivo): did not decrease
- urine TGF-beta levels, increase over 12 months ([6]; pirfenidone 1200 mg group): 0.3 pg/mg
- urine TGF-beta levels, decline over 12 months ([6]; pirfenidone 2400 mg group): 0.1 pg/mg
